From patent US20090137565A1, “Method for treatment of movement disorders” (The Trustees of Columbia University in the City of New York, priority 2004, published 2009)
“Also recorded” adds a separate entry of the source.

Legend:
[1] = tested on: ethanol-responsive myoclonus (PHM, MD); assay: Five-patient open-label trial of sodium oxybate, blinded UMRS (patients #1-3); assay type: in vivo, human; conditions: for UMRS section 2 (myoclonus at rest) score: range 0-128; for UMRS section 1 (patient questionnaire) score: range 0-44; for UMRS section 6 (global disability score): range 0-4; for UMRS section 3 (stimulus sensitivity) score: range 0-17; for UMRS section 5 (functional tests) score: range 0-20, 0 gm score 20; for UMRS section 4 (myoclonus with action) score: range 0-160; for UMRS section 5 (functional tests, modified) score: range 0-28
Description: Five patients were enrolled in a trial from the Movement Disorders Division of Columbia University Medical Center during the fall of 2004. All patients were afflicted with hyperkinetic movement disorders that responded to ethanol (defined as a noticeable change to the patient), and all were refractory to treatment with conventional medications or could not tolerate them. The Medical Center's Institutional Review Board approved the trial, and written and verbal informed consent were obtained from all patients prior to enrollment.
The dose and timing of all other drugs were kept constant throughout the trial, and patients were not withdrawn from other medications. Patients #1-3 were examined and videotaped using the Unified Myoclonus Rating Scale (UMRS), and patients #4 and 5 were examined and videotaped using the Washington Heights Inwood Tremor Rating Scale (WHIGET) (see Appendix I). Frucht S. J., et al. Adv Neurol 89:361-76 (2002); Louis, E. D., et al. Mov Disord 16:89-93 (2001).
(§1) Side effects were defined as either minor or serious (leading to hospitalization) using good clinical practice standards (www.who.int/medicines/library/par/ggcp/GCPGuidePharmatrials), and patients were asked to report side effects at each visit. After initial examination and videotaping, patients were given 1 gm of sodium oxybate by mouth (2 ml of the standard 0.5 gm/ml solution dissolved in 60 ml of water). One hour later, the senior author repeated the examination and videotaping. […] After two weeks taking 2 gm twice daily, the procedure was repeated after a 3 gm office dose, and finally two weeks after receiving 3 gm twice daily, the procedure was repeated after a 4 gm office dose. The maximum dose allowed in the trial was 4 gm twice daily. Patients and the senior author determined at each visit whether or not to proceed to the next dose level, based principally on their ability to tolerate the most recent dose regimen. After deciding on a maximum tolerated dose, patients received a dose in the office 0.5 gm less and the examination was videotaped.
The entire videotape segments and patient-writing samples from each visit were copied, and were blinded to trial order and identifying features, and were randomly ordered for review using a random number table. A movement disorder expert blinded to trial design and dose schedule, scored each videotape. Sub-scores for each visit were calculated as described previously. Frucht S. J., et al. Adv Neurol 89:361-76 (2002). We modified section 5 of the UMRS in which functional performance (pouring water, using a soup spoon) is performed only with the dominant arm (section V). […] This increased the maximum score of section 5 of the UMRS from 20 to 28.

[2] = Five-patient trial: tolerability of Xyrem; assay type: in vivo, human
Description: as §1

[3] = patient 1, listed as sodium oxybate, monosodium salt
[4] = patient 2, 2.5 gm, 0 gm score 4
[5] = patient 4, listed as Xyrem ®, monosodium salt

## O=C([O-])CCCO.[Na+] [GHB, 4-hydroxybutanoic acid monosodium salt]
[1]; patient 1 1 gm, 0 gm score 3
  UMRS section 2 (myoclonus at rest) score: 3
[1]; patient 1 3 gm, 0 gm score 33
  UMRS section 1 (patient questionnaire) score: 31
[1]; patient 1, 1 gm, 0 gm score 4
  UMRS section 6 (global disability score): 3
[1]; patient 1, 1 gm, 0 gm score 8
  UMRS section 3 (stimulus sensitivity) score: 3
[1]; patient 1, 1 gm
  UMRS section 5 (functional tests) score: 20
[1]; patient 1, 1 gm, 0 gm score 108
  UMRS section 4 (myoclonus with action) score: 96
[1]; patient 1, 2 gm, 0 gm score 4
  UMRS section 6 (global disability score): 3
[1]; patient 1, 2 gm, 0 gm score 8
  UMRS section 3 (stimulus sensitivity) score: 1
[1]; patient 1, 2 gm
  UMRS section 5 (functional tests) score: 13
[1]; patient 1, 2 gm, 0 gm score 3
  UMRS section 2 (myoclonus at rest) score: 0
[1]; patient 1, 2 gm, 0 gm score 108
  UMRS section 4 (myoclonus with action) score: 64
[1]; patient 1, 2.5 gm, 0 gm score 4
  UMRS section 6 (global disability score): 2
[1]; patient 1, 2.5 gm, 0 gm score 8
  UMRS section 3 (stimulus sensitivity) score: 2
[1]; patient 1, 2.5 gm
  UMRS section 5 (functional tests) score: 12
[1]; patient 1, 2.5 gm, 0 gm score 3
  UMRS section 2 (myoclonus at rest) score: 0
[1]; patient 1, 2.5 gm, 0 gm score 108
  UMRS section 4 (myoclonus with action) score: 54
[1]; patient 1, 3 gm (asthma exacerbation visit), 0 gm score 3
  UMRS section 2 (myoclonus at rest) score: 3
[1]; patient 1, 3 gm, 0 gm score 4
  UMRS section 6 (global disability score): 3
[1]; patient 1, 3 gm, 0 gm score 8
  UMRS section 3 (stimulus sensitivity) score: 3
[1]; patient 1, 3 gm
  UMRS section 5 (functional tests) score: 15
[1]; patient 1, 3 gm, 0 gm score 108
  UMRS section 4 (myoclonus with action) score: 86
[1]; [3]
  Rx effect, UMRS section 4 (action myoclonus improved by): 50%
  Rx effect, UMRS section 5 (functional performance improved by): 40%
[1]; patient 2 (table b)
  Rx effect, UMRS section 4: 88%
[1]; patient 2, 1 gm, 0 gm score 1
  UMRS section 6 (global disability score): 1
[1]; patient 2, 1 gm, 0 gm score 4
  UMRS section 3 (stimulus sensitivity) score: 2
  UMRS section 2 (myoclonus at rest) score: 2
[1]; patient 2, 1 gm, 0 gm score 10
  UMRS section 5 (functional tests, modified) score: 8
[1]; patient 2, 1 gm, 0 gm score 25
  UMRS section 4 (myoclonus with action) score: 29
[1]; patient 2, 2 gm, 0 gm score 1
  UMRS section 6 (global disability score): 1
[1]; patient 2, 2 gm, 0 gm score 4
  UMRS section 3 (stimulus sensitivity) score: 2
  UMRS section 2 (myoclonus at rest) score: 3
[1]; patient 2, 2 gm, 0 gm score 10
  UMRS section 5 (functional tests, modified) score: 4
[1]; patient 2, 2 gm, 0 gm score 25
  UMRS section 4 (myoclonus with action) score: 9
[1]; patient 2, 2.5 gm, 0 gm score 1
  UMRS section 6 (global disability score): 1
[1]; [4]
  UMRS section 3 (stimulus sensitivity) score: 0
  UMRS section 2 (myoclonus at rest) score: 0
[1]; patient 2, 2.5 gm, 0 gm score 10
  UMRS section 5 (functional tests, modified) score: 4
[1]; patient 2, 2.5 gm, 0 gm score 25
  UMRS section 4 (myoclonus with action) score: 3
[1]; patient 2, 3 gm, 0 gm score 1
  UMRS section 6 (global disability score): 1
[1]; patient 2, 3 gm, 0 gm score 4
  UMRS section 3 (stimulus sensitivity) score: 0
  UMRS section 2 (myoclonus at rest) score: 0
[1]; patient 2, 3 gm, 0 gm score 10
  UMRS section 5 (functional tests, modified) score: 5
[1]; patient 2, 3 gm, 0 gm score 25
  UMRS section 4 (myoclonus with action) score: 11
[1]; patient 2, listed as sodium oxybate, monosodium salt
  Rx effect, UMRS section 5 (functional performance improved by): 60%
[1]; patient 3 (table c)
  Rx effect, UMRS section 4: 57%
[1]; patient 3, 1 gm, 0 gm score 1
  UMRS section 6 (global disability score): 1
[1]; patient 3, 1 gm, 0 gm score 6
  UMRS section 3 (stimulus sensitivity) score: 2
[1]; patient 3, 1 gm, 0 gm score 12
  UMRS section 5 (functional tests, modified) score: 13
[1]; patient 3, 1 gm, 0 gm score 15
  UMRS section 2 (myoclonus at rest) score: 13
[1]; patient 3, 1 gm, 0 gm score 35
  UMRS section 4 (myoclonus with action) score: 25
[1]; patient 3, 2 gm, 0 gm score 1
  UMRS section 6 (global disability score): 1
[1]; patient 3, 2 gm, 0 gm score 6
  UMRS section 3 (stimulus sensitivity) score: 3
[1]; patient 3, 2 gm, 0 gm score 12
  UMRS section 5 (functional tests, modified) score: 9
[1]; patient 3, 2 gm, 0 gm score 15
  UMRS section 2 (myoclonus at rest) score: 15
[1]; patient 3, 2 gm, 0 gm score 35
  UMRS section 4 (myoclonus with action) score: 26
[1]; patient 3, 4 gm, 0 gm score 1
  UMRS section 6 (global disability score): 1
[1]; patient 3, 4 gm, 0 gm score 6
  UMRS section 3 (stimulus sensitivity) score: 1
[1]; patient 3, 4 gm, 0 gm score 12
  UMRS section 5 (functional tests, modified) score: 12
[1]; patient 3, 4 gm, 0 gm score 10
  UMRS section 1 (patient questionnaire) score: 5
[1]; patient 3, 4 gm, 0 gm score 15
  UMRS section 2 (myoclonus at rest) score: 10
[1]; patient 3, 4 gm, 0 gm score 35
  UMRS section 4 (myoclonus with action) score: 15
[1]; patient 3, listed as sodium oxybate, monosodium salt
  Rx effect, UMRS section 5 (functional performance improved by): 25%
[1]; patient #1
  Patient self-assessment scores: unchanged
[1]; patient #1, one hour after 2.5 gm
  writing and control of spoon: able to write (although slowly) and their control of the spoon was improved
[1]; patient #2, after 3 gm
  myoclonic jerks on writing, pouring, using a spoon: the amplitude and frequency of the jerks was diminished
[1]; patient #3, after 4 gm
  walking: modestly improved
[1]; patients #2 and 3
  Patient self-assessment scores: improved
[1]; patients #2 and 3, mild (1 out of 4) throughout
  Physician global assessment scores (UMRS part 6): remained unchanged
[1]; second of patients #1-3 'respectively' in the text (patient #2)
  Action myoclonus (section 4) improved by: 57%
[1]; third of patients #1-3 'respectively' in the text (patient #3)
  Action myoclonus (section 4) improved by: 88%
[2]; five patients
  common side effects not requiring dose reduction: Transient headache and dizziness
[2]; patient 1
  Dose @ D-L-SE: 3 gm
[2]; patient 1, disinhibition printed as mild, listed as Xyrem ®, monosodium salt
  D-L-SE (dose-limiting side effect): sedation and mild; also recorded: disinhibition
[2]; patient 1, judged not likely related to study drug
  SER SE (serious side effect, leading to hospitalization): asthma
[2]; patient 2
  Dose @ D-L-SE: 3 gm
  MILD SE: Ø
  SER SE: Ø
[2]; patient 2, listed as Xyrem ®, monosodium salt
  D-L-SE (dose-limiting side effect): emotional lability
[2]; patient 3
  D-L-SE (dose-limiting side effect): slight sedation
  Dose @ D-L-SE: 4 gm
  SER SE: Ø
[2]; patient 3, listed as Xyrem ®, monosodium salt
  MILD SE: HA (1 gm); also recorded: dizzy (1 gm)
[2]; patient 4
  Dose @ D-L-SE: 2 gm
  SER SE: Ø
[2]; [5]
  D-L-SE (dose-limiting side effect): emotional lability
  MILD SE: HA (1 gm); also recorded: dizzy (2 gm)
[2]; patient 5
  D-L-SE (dose-limiting side effect): slight sedation
  Dose @ D-L-SE: 2 gm
  MILD SE: Ø
  SER SE: Ø
